Where a name gives a salt, the structure may show the parent alone.
Assays:
[1] = test system: Nrf2; test: UVB-induced Nrf2 degradation in HPKs (Western blot); format: cell-based, human; details: harvested after 1 h, FIG. 7D
From the text: Next, the inventors investigated the activity of Nrf2 upon activation of the NLRP3 inflammasome, since inflammasome activation is ROS-dependent. […] This is surprising, since UVB irradiation is a strong inducer of ROS production and it can be anticipated that the cells would benefit from Nrf2 activation. UVB-induced secretion by HPKs requires expression of NLRP1 and NLRP3 [21]. Both nigericin and MSU crystals are considered as “true” NLRP3 activators, but HPKs cannot phagocytose MSU crystals. Therefore, the inventors treated HPKs with nigericin only and THP-1 cells with either of these NLRP3 activators. […] Therefore, NLRP3 inflammasome activation most likely induces Nrf2 protein degradation. […] However, inflammasome activation-induced Nrf2 degradation was blocked upon ablation of ASC or NLRP3 expression (FIG. 4G) and upon treatment of cells with the ROS blocker PDTC or the Ca2+ chelator BAPTA-AM (Supplementary FIG. 2D). […] However, inflammasome function was not impaired, as reflected by normal processing of pro-IL-18 (FIG. 4H). Although Keap1 expression is partially dispensable for Nrf2 degradation by inflammasome activation, the transcription factor is directed to the proteasome under these conditions, since Nrf2 degradation was inhibited by the proteasome inhibitor MG132 (FIG. 4I and FIG. 7D).
(§1) FIG. 7: (A-C) HPKs were transfected with siRNAs for 3 d as indicated. Scrambled (scr) siRNA and siRNA targeting the unrelated vascular endothelial growth factor (VEGF) served as controls. Western blots of (A) total lysates or (B) nuclear and cytoplasmic lysates and (C) qRT-PCR for expression of target gene expression. (D) HPKs were treated with MG132 (1 μM), PDTC (500 μM) or BAPTA-AM (12.5 μM) for 10 min and harvested (before UV) or irradiated with UVB and harvested after 1 h. Western blots showing expression of Nrf2. (E) Differentiated and primed THP-1 cells were pretreated with cycloheximide (CHX, 30 μg/ml) for 1 h before priming cells with upLPS overnight. Western blots show expression of the indicated proteins. […] Statistics: (C) Mann-Whitney test, related to scr control. *P≤0.05

[2] = test system: Nrf2; test: Nrf2 stabilisation and nuclear accumulation in human primary keratinocytes (Western blot); format: cell-based; details: HPKs, FIG. 6E,F; for expression of the other Nrf2 complex proteins Keap1, Cul3, and Rbx1: 1 h; for stabilisation and nuclear accumulation of Nrf2 protein: harvested after 1 h
Protocol: (§2) Human primary keratinocytes (HPKs) constitutively express pro-IL-1β and inflammasome proteins.
(§3) FIG. 6: Bone marrow (BM) cells were isolated from Nrf2-deficient mice and wt litterfnates and differentiated into dendritic cells (DCs). (A, B) After priming with upLPS overnight, BMDCs were treated with the NLRP3 inflammasome activators nigericin (20 μM), zymosan (20 μg/ml), MSU (150 μg/ml), ATP (5 mM) or transfected with poly(dA:dT) (1 μg/ml) for activation of the AIM2 inflammasome. After 6 h, supernatants were analysed for secretion of IL-1β by (A) ELISA or (B) Western blot. Mock-treated but primed BMDCs were analysed for expression of inflammasome proteins and pro-IL-1β at the (C) mRNA level by qRT-PCR or at the (D) protein level by Western blot. (B, D) Duplicates from two individual mice per genotype are shown (biological replicates). (E-G) HPKs were treated with the Nrf2 activators SFN (10 μM), tBHQ (10 μM), DMF (50 μM) and 15d-PGJ2 (10 μM). After 1 h, the cells were harvested and analysed for expression of the indicated proteins using total cell lysates (E) or cytoplasmic and nuclear lysates (F). Western blots for the nuclear protein lamin NC and the cytoplasmic protein α-tubulin served as controls. Specific bands are marked with an asterisk. (G) Total RNA was isolated after 8 h and qRT-PCR was performed for quantification of expression of the Nrf2 target genes glutamate-cysteine ligase, catalytic subunit (GCLC), glutamate-cysteine ligase, modifier subunit (GCLM), and NAD(P)H dehydrogenase, quinone 1 (N001). (A-G) Representative experiments performed at least three times are shown. […] Mann-Whitney test was performed. […] Mann-Whitney test was performed. *P≤0.05

[3] = test system: Nrf2 target genes (GCLC, GCLM, NAD(P)H dehydrogenase, quinone 1); test: Nrf2 target gene expression in HPKs (qRT-PCR); format: cell-based, human; details: RNA after 8 h, FIG. 6G
Protocol: as §2
qRT-PCR was performed with the LightCycler 480 SYBR Green Master or the FastStart Universal SYBR Green Master (both Roche, Rotkreuz, Switzerland) using total cellular RNA. Specific primer pairs (Supplementary Table 2) were designed to generate an approximately 150 bp fragment flanking an intron-exon border of the corresponding gene. The LightCycler 480 96-well version (ROCHE, Rotkreuz, Switzerland) or the ViiA 7 Real-Time FOR System (Life Technologies, Carlsbad, US-CA) was used for reaction and detection according the instructions of the manufacturer.
as §3

[4] = test system: Monosodium urate (MSU) crystal-induced peritonitis; test: MSU crystal-induced peritonitis mouse model (neutrophils in peritoneal lavage); format: in vivo; details: mice, oral gavage 20 mg/kg for six days, 6 h post 2 mg MSU crystals, vs control mice, n=7, FIG. 3E
Protocol: (§7) Monosodium urate (MSU) crystal-induced peritonitis is a mouse model of inflammation and gout, which is dependent on IL-1, IL-1R1, MyD88 and the NLRP3 inflammasome. […] The inventors chose a different way of administration and supplied mice with SFN or DMF by oral gavage to determine a potential anti-inflammatory activity of the Nrf2 activators in vivo (FIG. 3). […] The inventors analysed the cellular infiltrate in the peritoneum 6 h post injection of MSU crystals.
Mice were challenged with 2 mg of MSU crystals for 6 hours as previously described (Chen et a Olin Invest 2006. 116: 2262-2271).
Mice treated by gavage with (A, B, C) SFN (25 mg/kg) in PBS or (D, E, F) DMF (20 mg/kg) in H2O containing 0.08% methocel and 10% DMSO, vehicle-treated mice served as control. Regime for (A) SFN or (D) DMF treatment. Peritonitis was induced by peritoneal injection of 2 mg MSU crystals, (B, E) After 6 h the number of neutrophils of the peritoneal lavage was determined by flow cytornetry. […] Statistics: Student's t-test. (B, C) n≥3, (E, F) n=7. *P≤0.05; **P≤0.01

[5] = target: T1, NLRP3 inflammasome (Homo sapiens, UniProt Q96P20); test: Nigericin-induced IL-1β secretion in human PBMCs (ELISA); format: cell-based; details: 5 h, FIG. 2C
T1 construct: endogenous in cells
T1 sequence (Q96P20 whole entry): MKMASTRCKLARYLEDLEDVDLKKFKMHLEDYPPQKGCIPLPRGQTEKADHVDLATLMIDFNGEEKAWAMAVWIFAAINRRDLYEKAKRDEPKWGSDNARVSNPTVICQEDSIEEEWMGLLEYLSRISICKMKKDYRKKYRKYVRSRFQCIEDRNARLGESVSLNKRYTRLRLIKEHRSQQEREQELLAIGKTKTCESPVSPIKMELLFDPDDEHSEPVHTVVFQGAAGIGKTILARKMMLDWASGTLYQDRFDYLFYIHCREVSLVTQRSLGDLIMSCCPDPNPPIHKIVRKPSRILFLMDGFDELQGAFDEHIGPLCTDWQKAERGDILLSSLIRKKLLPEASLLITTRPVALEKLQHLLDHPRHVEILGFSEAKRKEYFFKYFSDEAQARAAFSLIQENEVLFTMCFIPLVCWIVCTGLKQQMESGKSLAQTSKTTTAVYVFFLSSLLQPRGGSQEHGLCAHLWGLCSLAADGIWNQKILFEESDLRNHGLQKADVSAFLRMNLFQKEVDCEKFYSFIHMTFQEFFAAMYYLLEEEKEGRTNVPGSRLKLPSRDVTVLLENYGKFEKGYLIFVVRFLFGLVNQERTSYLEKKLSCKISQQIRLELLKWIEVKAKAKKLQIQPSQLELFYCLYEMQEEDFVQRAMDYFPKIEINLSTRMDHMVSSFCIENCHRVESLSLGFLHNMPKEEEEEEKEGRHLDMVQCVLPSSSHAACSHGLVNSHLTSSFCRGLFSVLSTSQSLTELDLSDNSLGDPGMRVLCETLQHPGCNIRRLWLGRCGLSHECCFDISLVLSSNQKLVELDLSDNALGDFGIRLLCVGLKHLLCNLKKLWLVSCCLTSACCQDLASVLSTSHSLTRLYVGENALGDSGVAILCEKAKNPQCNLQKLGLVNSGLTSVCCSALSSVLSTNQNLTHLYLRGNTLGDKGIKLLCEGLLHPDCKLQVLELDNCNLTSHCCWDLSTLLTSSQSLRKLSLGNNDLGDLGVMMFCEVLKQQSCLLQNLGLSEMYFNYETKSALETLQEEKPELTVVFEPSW
From the text: (§4) To determine the effects of Nrf2 activating compounds on inflammasome activation, the inventors treated keratinocytes with different doses of SFN, tBHQ, DMF or 15d-PGJ2 and irradiated the cells with UVB.
(§5) SFN, DMF, 15d-PGJ2, tBHQ, zymosan, ATP, poly(dA:dT), cycloheximide, puromycin, and doxycycline were purchased from Sigma (Munich, Germany), nigericin from Enzo Life Sciences (New York, US-NY), MG132 from Calbiochem (Darmstadt, Germany), and blasticidin from Invivogen (Toulouse, France). Release of IL-1p was determined by ELISA according the instructions of the manufacturer (R&D Systems, Minneapolis, US-MN). MSU crystals were prepared by crystallisation of a supersaturated solution of uric acid under mildly basic conditions. Briefly, uric acid was added to a solution of NaOH, the solution was boiled until the uric acid was dissolved and passed through a filter. NaCl was added and crystallisation was performed at 4° C. Crystals were filtered, then dried using a speedvac, weighted and autoclaved.
(§6) (A) HPKs were treated with the indicated concentrations of the Nrf2 activating compound tBHQ irradiated with UVB 30 min later and harvested after 5 h. ELISA measurements were performed for quantification of IL-1β secretion and Western blots for analysis of expression and activation of the indicated proteins. Specific bands are marked with an asterisk. (B) THP-1 cells were differentiated with PMA (27 nM) for 3 d, primed with upLPS (100 ng/ml) overnight, and 1 h before inflammasome activation (5 μM nigericin, 150 μg/ml MSU) treated with SFN (10 μM), 15-PGJ2 (10 μM) or DMF (50 μM) (15-PG: 15-PGJ2). Cells and supernatants were harvested after 5 h and analysed for inflammasome activation by ELISA measurement of IL-1p and Western blots as indicated. (C) Freshly isolated PBMCs from human blood were primed overnight with upLPS (100 ng/ml) and treated with SFN (10 μM), tBHQ (10 μM), DMF (50 μM) or 15-PGJ2 (10 μM) 1 h before inflammasome activation by nigericin (5 μM). ELISA measurement for secretion of IL-1β as readout for inflammasome activation was performed after 5 h. (D) HPKs or (E) differentiated and primed THP-1 cells were pretreated with cycloheximide (CHX, 30 μg/ml) to block protein synthesis for 1 h before SFN (10 μM) was added to the cells and after an additional hour the inflammasome was activated by (D) irradiation with UVB or (E) treatment with nigericin (5 μM). Cells and supernatants were harvested after (D) 6 h or (E) 3.5 h and analysed for inflammasome activation by Western blot as indicated. (A-E) Representative experiments performed at least three times are shown. Statistics: (A-C) Error bars represent the mean±SD of a representative experiment performed in triplicates. One-way ANOVA was performed. **P≤0.01; ***P≤0.001.

[6] = test system: Nrf2 target genes Gstp1, Nqo1 and Srxn1; test: Nrf2 target gene expression in liver of treated mice (qRT-PCR); format: in vivo, mouse; details: oral gavage 20 mg/kg, FIG. 3F
Protocol: as §7
qRT-PCR was performed with the LightCycler 480 SYBR Green Master or the FastStart Universal SYBR Green Master (both Roche, Rotkreuz, Switzerland) using total cellular RNA. Specific primer pairs (Supplementary Table 2) were designed to generate an approximately 150 bp fragment flanking an intron-exon border of the corresponding gene. […]
Mice treated by gavage with (A, B, C) SFN (25 mg/kg) in PBS or (D, E, F) DMF (20 mg/kg) in H2O containing 0.08% methocel and 10% DMSO, vehicle-treated mice served as control. […] Peritonitis was induced by peritoneal injection of 2 mg MSU crystals, (B, E) After 6 h the number of neutrophils of the peritoneal lavage was determined by flow cytornetry. (C, F) At the same time, the liver was isolated and analysed for the expression of the Nrf2 target genes Gstp1, Nqo1 and Srxn1 by qRT-PCR. […]

[7] = test system: NLRP3 inflammasome; test: UVB irradiation-induced inflammasome activation in HPKs (IL-1β ELISA, Western blot); format: cell-based, human; details: FIG. 2A, 8A-C; for inflammasome activation (processed caspase-1, mature IL-1β and -18 in the supernatant): different doses, UVB 30 min later, harvested after 5 h
From the text: as §4, §5, §6
FIG. 8: (A-C) HPKs were treated with the Nrf2 activating compounds (A) SFN, (B) DMF, and (C) 15d-PGJ2, irradiated with UVB 30 min later and harvested after 5 h. Analogous experiment as described in FIG. 2A for tBHQ. (D) THP-1 cells were differentiated with TPA for 3 d and primed with LPS overnight. Then, cells were treated with the solvent DMSO, SFN (10 μM) or 15-PGJ2 (10 μM). After 30 min the inflammasome was activated by nigericin treatment and cells and supernatants were harvested after 2.5 h. Western blots showing prolL-1β and mature IL-1p in the lysate and supernatant. 20% lysate and supernatant of a 12 well was used, respectively, in order to allow a comparison. IL-1β was quantified in the supernatant by ELISA and cytotoxicity by LDH release.

[8] = target: T1, NLRP3 inflammasome; test: Inflammasome activation by nigericin/MSU in differentiated, primed THP-1 cells (IL-1β ELISA, Western blot); format: cell-based; details: THP-1, 50 μM 1 h before 5 μM nigericin or 150 μg/ml MSU, 5 h, FIG. 2B
From the text: as §4, §5, §6
(A-C) HPKs were irradiated with (A) UVB or treated with (B) nigericin (5 μM) and cells and supernatants were harvested at different time points as indicated. Western blots for expression and activation of the indicated proteins. Specific bands are marked with an asterisk. (C) Expression of Nrf2 and Nrf2 target genes was determined by qRT-PCR. (D, E) THP-1 cells were differentiated with PMA (27 nM) for 3 d, primed with upLPS (100 ng/ml) overnight and treated with nigericin (5 μM) or MSU (150 μg/ml). Cells and supernatants were harvested at different time points as indicated and analysed for (D) expression and activation of the proteins as indicated by Western blot and (E) expression of Nrf2 and Nrf2 target genes by qRT-PCR. (F) HPKs were transfected with specific siRNAs as indicated (scr: scrambled, c1: caspase-1, K1; Keap1), 2 d later irradiated with UVB or treated with nigericin (5 μM). Cells were harvested after 1 h or 5 h, and lysates were analysed for the expression of the indicated proteins by Western blot.

[9] = test system: THP-1 cells; test: Block of protein synthesis in THP-1 cells (Western blot); format: cell-based, human; details: THP-1, 30 μg/ml for 1 h before priming with upLPS overnight, FIG. 7E
Protocol: To determine the effects of Nrf2 activating compounds on inflammasome activation, the inventors treated keratinocytes with different doses of SFN, tBHQ, DMF or 15d-PGJ2 and irradiated the cells with UVB. […] As the Nrf2 activators were added to the cells only 15 to 30 min prior to inflammasome activation, it is unlikely that Nrf2 target genes are involved in inflammasome inhibition.
as §1

Structure (SMILES): CC(=O)OCOC(=O)CN(CC(=O)OCOC(C)=O)c1ccccc1OCCOc1ccccc1N(CC(=O)OCOC(C)=O)CC(=O)OCOC(C)=O [BAPTA-AM]
- inflammasome activation-induced Nrf2 degradation ([1]; 12.5 μM for 10 min): blocked

Structure (SMILES): COC(=O)/C=C/C(=O)OC [DMF, dimethyl fumarate]
- expression of the other Nrf2 complex proteins Keap1, Cul3, and Rbx1 ([2]; 50 μM): not affected
- stabilisation and nuclear accumulation of Nrf2 protein ([2]; 50 μM): fast and robust stabilisation and nuclear accumulation of Nrf2 protein
- expression of classical Nrf2 target genes ([3]; 50 μM): induction of classical Nrf2 target genes
- number of neutrophils in the peritoneum [4]: significantly reduced
- IL-1β secretion ([5]; 50 μM 1 h before nigericin (5 μM)): inhibited IL-1β secretion
- expression of Nrf2 target genes in the liver [6]: increased mRNA expression
- relative efficiency/potency of inflammasome inhibition between compounds ([7]; UVB, same concentrations): less potent in inflammasome inhibition than SFN
- inflammasome activation (processed caspase-1, mature IL-1β and -18 in the supernatant) [7]: inhibited inflammasome activation in a dose-dependent manner
- IL-1β secretion [8]: inhibited IL-1β secretion

Structure (SMILES): N.S=C(S)N1CCCC1 [PDTC]
- inflammasome activation-induced Nrf2 degradation ([1]; 500 μM for 10 min): blocked

Structure (SMILES): C[C@@H]1C[C@@H]([C@H](O)CC2CC(=O)NC(=O)C2)C(=O)[C@@H](C)C1 [cycloheximide]
- protein synthesis [9]: blocks protein synthesis

Structure (SMILES): CC(C)(C)c1cc(O)ccc1O [tBHQ, tert-butylhydroquinone]
- expression of the other Nrf2 complex proteins Keap1, Cul3, and Rbx1 ([2]; 10 μM): not affected
- stabilisation and nuclear accumulation of Nrf2 protein ([2]; 10 μM): fast and robust stabilisation and nuclear accumulation of Nrf2 protein
- expression of classical Nrf2 target genes ([3]; 10 μM): induction of classical Nrf2 target genes
- IL-1β secretion ([5]; 10 μM 1 h before nigericin (5 μM)): inhibited IL-1β secretion
- inflammasome activation (processed caspase-1, mature IL-1β and -18 in the supernatant) [7]: inhibited inflammasome activation in a dose-dependent manner

From patent US20190029987A1, “DIMETHYL FUMARATE (DMF) FOR PREVENTION OR TREATMENT OF GOUT, ACNE, DIABETES, VITILIGO AND/OR PYODERMA GANGRENOSUM” (UNIVERSITAT ZURICH, priority 2016, published 2019)
